This experiment has as its system H1299 NSCLC tumors. Description: H1299 NSCLC tumors in mice, effect on TME. Format: in vivo. As to the method: Mice bearing H1299 NSCLC tumors were administered bevacizumab (an anti-angiogenic antibody) (5 mg/kg twice weekly IP for four weeks) alone or in combination with IMPRIME PGG (1.2 mg/mouse twice weekly IV for four weeks) as described above for the other mouse studies. […] Increased iNOS and decreased Arginase 1 are markers indicating an M1, immunostimulatory environment.
In addition, at day 20, post tumor injection, spleens were harvested and single cell suspensions were stained with mouse antibodies and analyzed by FACS. GMFI or frequency was calculated in Flowjo after gating on CD11b+F4/80+CD68+ cells (FIG. 17D-FIG. 17F). FIG. 17D and FIG. 17E show an increase in iNOS and a decrease of Arginase-1, respectively. Spleen cells were also stimulated overnight with 100 ng/ml lipopolysaccharide (LPS) and analyzed for TNF-α production. […] As shown, Arginase-1 decreased and iNOS and CD86 increased, which indicates differentiation of splenic MDSC to M1/N1 macrophage/neutrophils with IMPRIME PGG treatment.
For FIG. 17K-FIG. 17M, tumors were harvested at day 20 and digested with type I collagenase for 1 hour at 37° C. Single cell suspensions were stained with mouse antibodies and analyzed by FACS. GMFI or frequency was calculated in Flowjo after gating on CD11b+ cells. As shown, PD-L1 and iNOS increased while Arginase-1 decreased indicating the shift in tumor-infiltrating myeloid cells to a M1-type phenotype.
Lastly, single cell suspensions of the tumor cells were cultured overnight and supernatants were measured for TGF-β by ELISA.

Setting [1] is: spleen, day 20, CD11b+F4/80+CD68+ cells.

As for “β(1,6)-[poly-(1,3)-D-glucopyranosyl]-poly-β(1,3)-D-glucopyranose [β-glucan]”, the TNF-α production entry (spleen cells stimulated overnight with 100 ng/ml LPS) is “increase”. In addition, under “spleen, CD11b+Gr1+ cells”, the Arginase-1 result is reported as “decreased”, the CD86 result was “increased” and the iNOS result is reported as “increased”. Under setting [1], the Arginase-1 result is reported as “decrease” and the iNOS entry is on record as “increase”. Further, the “expression of co-stimulatory marker CD86” value (tumor granulocytic MDSC (CD11b+Lyg6+)) is “enhanced expression”.

Values taken from patent US10111900B2, “β-glucan methods and compositions that affect the tumor microenvironment” (Biothera, Inc., priority 2014, dated 2018).
